This passage reports IC50 results from US20250011313A1, “CCR6 RECEPTOR MODULATORS” (Idorsia Pharmaceuticals Ltd, priority 2021, published 2025).

The assay addresses T1, human CCR6 (Homo sapiens, UniProt P51684).
T1 construct: expressed in transfected cells; host or cells: HEK-293
T1 sequence (P51684 1-374): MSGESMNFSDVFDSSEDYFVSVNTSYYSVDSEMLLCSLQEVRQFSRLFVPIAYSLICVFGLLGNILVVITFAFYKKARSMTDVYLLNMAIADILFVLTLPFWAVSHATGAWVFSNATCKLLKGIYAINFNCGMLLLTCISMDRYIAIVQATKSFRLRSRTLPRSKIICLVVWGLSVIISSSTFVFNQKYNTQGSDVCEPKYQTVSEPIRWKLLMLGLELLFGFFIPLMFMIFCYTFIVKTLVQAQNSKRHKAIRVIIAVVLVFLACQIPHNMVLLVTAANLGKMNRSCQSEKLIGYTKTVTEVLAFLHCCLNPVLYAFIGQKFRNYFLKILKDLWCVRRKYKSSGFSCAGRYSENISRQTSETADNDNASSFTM
Nature of the assay: FLIPR assay (calcium flux, inhibition of CCL20 agonist response). Format: cell-based. The conditions noted are these: HEK-293 cells expressing human CCR6; agonist CCL20 10 nM; 30 min preincubation; mean values if determined several times. The protocol:
FLIPR assay: The bioactivity of compounds is tested in a fluorometric imaging plate reader (FLIPR: Molecular Devices) using engineered HEK-293 cells expressing the human CCR6 (GenBank: AY242126). Frozen cells are plated on Poly-L-Lysine precoated 384-well plates 2 days prior to bioassay in DMEM medium supplemented with 10% FCS and 1% Penicillin-Streptomycin. At the day of bioassay, cell supernatant is discarded and cells are dye loaded for 30 minutes at room temperature in the dark with Fluo-8-AM (Focus Biomolecules) in Hanks Balanced Salt Solution (Gibco), buffered with 20 mM Hepes at pH 6.75 and supplemented with 0.05% BSA. This buffer, but lacking the dye, is also used for washing and compound dilution steps (assay buffer). Cells are washed free of excess dye with a wash-station (Biotek), leaving 40 microliter of assay buffer at the end. Cells were incubated for 15 minutes at room temperature in the dark, before adding compounds. Stock solutions of test compounds are made up at a concentration of 10 mM in DMSO, and serially diluted first in DMSO and then transferred in assay buffer to concentrations required for inhibition dose response curves. After a 45 minute incubation period in assay buffer at room temperature, 10 microliters of each compound dilution are transferred from a compound plate to the plate containing the recombinant cells in the FLIPR instrument according to the manufacturer's instructions. After cells and compounds were preincubated for 30 minutes at room temperature in the dark, 10 microliter agonist CCL20 (Peprotech) at a final concentration of 10 nM is added, again using the FLIPR instrument. Changes in fluorescence are monitored before and after addition of the test compounds and agonist. Emission peak values above base level after CCL20 addition are exported after base line subtraction. The calculated IC50 values may fluctuate depending on the daily assay performance. Fluctuations of this kind are known to those skilled in the art. In the case where IC50 values have been determined several times for the same compound, mean values are given.

Turning to `CC(=O)NC1CCC(c2nc(-c3cncc([C@@](O)(c4ccc(C(C)C)cc4)C4(C)CN(C)C4)c3)no2)CC1` (single isomer, unassigned) [Example 8, cis- or trans-N-[4-(3-{5-[(R)-(1,3-Dimethyl-azetidin-3-yl)-hydroxy-(4-isopropyl-phenyl)-methyl]-pyridin-3-yl}-[1,2,4]oxadiazol-5-yl)-cyclohexyl]-acetamide], the IC50 – broadly, the concentration needed to halve the response being measured – is 52.2 nM.

For `CC(C)c1ccc([C@](O)(c2cncc(C#CC(C)(O)c3ccncn3)c2)C2(C)CN(C)C2)cc1` (single isomer, unassigned) [Example 10, (R)- or (S)-4-{5-[(R)-(1,3-Dimethyl-azetidin-3-yl)-hydroxy-(4-isopropyl-phenyl)-methyl]-pyridin-3-yl}-2-pyrimidin-4-yl-but-3-yn-2-ol], the IC50 is 71.5 nM.

As for `CN1CC(C)([C@](O)(c2ccc(CC(F)(F)F)cc2)c2cncc(-c3noc([C@H]4CC[C@H](O)CC4)n3)c2)C1` [Example 1, trans-4-[3-(5-{(R)-(1,3-Dimethyl-azetidin-3-yl)-hydroxy-[4-(2,2,2-trifluoro-ethyl)-phenyl]-methyl}-pyridin-3-yl)-[1,2,4]oxadiazol-5-yl]-cyclohexanol], the IC50 turned out to be 83 nM.

As for `CN1CC(C)([C@](O)(c2ccc(CC(F)(F)F)cc2)c2cncc(-c3noc(C45CC(CO)(C4)C5)n3)c2)C1` [Example 2, (R)-(1,3-Dimethyl-azetidin-3-yl)-{5-[5-(3-hydroxymethyl-bicyclo[1.1.1]pent-1-yl)-[1,2,4]oxadiazol-3-yl]-pyridin-3-yl}-[4-(2,2,2-trifluoro-ethyl)-phenyl]-methanol], the IC50 turned out to be 140 nM.

For `CC(=O)NC12CC(c3nc(-c4cncc([C@@](O)(c5ccc(C(C)C)cc5)C5(C)CN(C)C5)c4)no3)(C1)C2` [Example 3, N-[3-(3-{5-[(R)-(1,3-Dimethyl-azetidin-3-yl)-hydroxy-(4-isopropyl-phenyl)-methyl]-pyridin-3-yl}-[1,2,4]oxadiazol-5-yl)-bicyclo[1.1.1]pent-1-yl]-acetamide], the IC50 worked out at 55.7 nM.

As to `CC(C)c1ccc([C@](O)(c2cncc(-c3noc(C45CCC(O)(CC4)CC5)n3)c2)C2(C)CN(C)C2)cc1` [Example 4, 4-(3-{5-[(R)-(1,3-Dimethyl-azetidin-3-yl)-hydroxy-(4-isopropyl-phenyl)-methyl]-pyridin-3-yl}-[1,2,4]oxadiazol-5-yl)-bicyclo[2.2.2]octan-1-ol], the IC50 was 23.9 nM.

Take `CN1CC(C)([C@](O)(c2ccc(CC(F)(F)F)cc2)c2cncc(-c3nc(C(C)(C)CO)no3)c2)C1` [Example 5, 2-[5-(5-{(R)-(1,3-Dimethyl-azetidin-3-yl)-hydroxy-[4-(2,2,2-trifluoro-ethyl)-phenyl]-methyl}-pyridin-3-yl)-[1,2,4]oxadiazol-3-yl]-2-methyl-propan-1-ol]: the IC50 amounted to 144 nM.

`CC(=O)N1CC2(CC(c3nc(-c4cncc([C@@](O)(c5ccc(C(C)C)cc5)C5(C)CN(C)C5)c4)no3)C2)C1` [Example 6, 1-[6-(3-{5-[(R)-(1,3-Dimethyl-azetidin-3-yl)-hydroxy-(4-isopropyl-phenyl)-methyl]-pyridin-3-yl}-[1,2,4]oxadiazol-5-yl)-2-aza-spiro[3.3]hept-2-yl]-ethanone]: the IC50 amounted to 111 nM.

Turning to `CCC(=O)N[C@H]1CC[C@H](c2nc(-c3cncc([C@@](O)(c4ccc(C(C)C)cc4)C4(C)CN(C)C4)c3)no2)CC1` [Example 7, trans-N-[4-(3-{5-[(R)-(1,3-Dimethyl-azetidin-3-yl)-hydroxy-(4-isopropyl-phenyl)-methyl]-pyridin-3-yl}-[1,2,4]oxadiazol-5-yl)-cyclohexyl]-propionamide], the IC50 came out at 78.8 nM.

In the case of `CN1CC(C)([C@](O)(c2ccc(CC(F)(F)F)cc2)c2cncc(-c3nc(C45CC(CO)(C4)C5)no3)c2)C1` [Example 9, (R)-(1,3-Dimethyl-azetidin-3-yl)-{5-[3-(3-hydroxymethyl-bicyclo[1.1.1]pent-1-yl)-[1,2,4]oxadiazol-5-yl]-pyridin-3-yl}-[4-(2,2,2-trifluoro-ethyl)-phenyl]-methanol], the IC50 was 146 nM.

In the case of `CC(C)c1ccc([C@](O)(c2cncc(C#C[C@H]3CC[C@H](O)CC3)c2)C2(C)CN(C)C2)cc1` [Example 11, trans-4-{5-[(R)-(1,3-Dimethyl-azetidin-3-yl)-hydroxy-(4-isopropyl-phenyl)-methyl]-pyridin-3-ylethynyl}-cyclohexanol], the IC50 turned out to be 28.7 nM.

As to `CC(C)c1ccc([C@](O)(c2cncc(C#C[C@H]3CC[C@@H](O)CC3)c2)C2(C)CN(C)C2)cc1` [Example 12, cis-4-{5-[(R)-(1,3-Dimethyl-azetidin-3-yl)-hydroxy-(4-isopropyl-phenyl)-methyl]-pyridin-3-ylethynyl}-cyclohexanol], the IC50 was determined as 25.4 nM.

As for `CC(C)c1ccc([C@](O)(c2cncc(-c3noc(C45CCC(C(N)=O)(CC4)CC5)n3)c2)C2(C)CN(C)C2)cc1` [Example 13, 4-(3-{5-[(R)-(1,3-Dimethyl-azetidin-3-yl)-hydroxy-(4-isopropyl-phenyl)-methyl]-pyridin-3-yl}-[1,2,4]oxadiazol-5-yl)-bicyclo[2.2.2]octane-1-carboxylic acid amide], the IC50 was 37.5 nM.

In the case of `CC(C)c1ccc([C@](O)(c2cncc(-c3noc(C4CCC(C(N)=O)CC4)n3)c2)C2(C)CN(C)C2)cc1` (stereo partly drawn) [Example 14, 4-(3-{5-[(R)-(1,3-Dimethyl-azetidin-3-yl)-hydroxy-(4-isopropyl-phenyl)-methyl]-pyridin-3-yl}-[1,2,4]oxadiazol-5-yl)-cyclohexanecarboxylic acid amide], the IC50 was 46.3 nM.

Take `CN1CC(C)([C@](O)(c2ccc(CC(F)(F)F)cc2)c2cncc(-c3noc(C45CCC(C(N)=O)(CC4)CC5)n3)c2)C1` [Example 15, 4-[3-(5-{(R)-(1,3-Dimethyl-azetidin-3-yl)-hydroxy-[4-(2,2,2-trifluoro-ethyl)-phenyl]-methyl}-pyridin-3-yl)-[1,2,4]oxadiazol-5-yl]-bicyclo[2.2.2]octane-1-carboxylic acid amide]: the IC50 was found to be 65.3 nM.

On to `CC(=O)N[C@H]1CC[C@H](c2nc(-c3cncc([C@@](O)(c4ccc(CC(F)(F)F)cc4)C4(C)CN(C)C4)c3)no2)CC1` [Example 16, N-{4-[3-(5-{(R)-(1,3-Dimethyl-azetidin-3-yl)-hydroxy-[4-(2,2,2-trifluoro-ethyl)-phenyl]-methyl}-pyridin-3-yl)-[1,2,4]oxadiazol-5-yl]-trans-cyclohexyl}-acetamide], for which the IC50 is 226 nM.
